Source: US10130590B2, “Methods of treating cancer with atovaquone-related compounds” (DANA-FARBER CANCER INSTITUTE, INC., priority 2013, dated 2018)
Entries after “also recorded” stand apart in the source; their conditions may differ.

Columns and labels:
[1] = tested on: STAT5; assay: STAT5 phosphorylation in cancer cells; format: cell-based
Excerpt: It has been discovered, using an unbiased gene expression-based approach, that atovaquone is a novel STAT3 inhibitor. Atovaquone acts by diminishing cell-surface gp130 expression and STAT3 tyrosine phosphorylation. As a consequence, critical STAT3 target genes mediating survival and proliferation are reduced, such as survivin, Bcl-2 family members, and cyclin D1. Moreover, atovaquone inhibits the viability of STAT3-dependent cancer cells by inducing apoptosis and disrupting cell cycle progression. […] Since STAT5 activation is crucial to cancer pathogenesis caused by JAK2-V617F, the additional inhibition of STAT5 in this context is a desirable effect of atovaquone. […] Because the effects of atovaquone on STAT activation are restricted to gp130-dependent signaling, atovaquone inhibits STATs more selectively than direct pharmacological JAK inhibition. […] At the same time, the actions of atovaquone extend to all cytokines that signal through gp130, including LIF and OSM, thereby exerting broader effects than therapies specifically directed against IL-6 or IL-6 receptor, such as monoclonal antibodies. This is also advantageous, since oncogenic effects of LIF and OSM have been reported.

[2] = tested on: U266 cells; assay: Cell viability (Cell Titer Glo), U266; format: cell-based, human; conditions: 72 hours
Procedure: Western blotting was performed as previously described (Battle T E, Arbiser J, & Frank D A (2005) The natural product honokiol induces caspase dependent apoptosis in B-cell chronic lymphocytic leukemia (B-CLL) cells. Blood 106(2):690-697). Antibodies to phospho-MAPK (9101), total MAPK (9102), phospho-Y705 STAT3 (9131), phospho-S6 (2215), total S6 (2217), phospho-4E-BP1 (9451), total 4E-BP1 (9644), total RSK (9355), phospho-S6K (9234, 85 used at 1:5000), total S6K (2708), phospho-eIF2α (9721, used at 1:1000), total eIF2α (5324), ATF4 (11815, used at 1:1000), PDGFRβ (3169), IGF1Rβ (9750), EGFR (2232), and HER2 (2242) were from Cell Signaling Technology. Phospho-RSK antibody was from R&D (AF889). Antibodies to total STAT3 (sc-482) and gp130 (sc-656, used at 1:1000) were from Santa Cruz Biotechnology. Phospho-S727 STAT3 antibody was described previously (229). REDD1 antibody was from Proteintech (10638-1-AP, used at 1:1000). Antibody recognizing full-length and cleaved ATF6 was from Abcam (ab122897, used at 1:1000). Antibodies to tubulin (T5168) and beta actin (A5316) were from Sigma. All antibodies were used at 1:10000 dilution for western blot unless otherwise noted. […] Cell viability was measured as ATP-dependent luminescence by Cell Titer Glo (Promega). […]

[3] = tested on: U266 cells; assay: Viability of U266 cells grown in patient serum; format: cell-based, human; conditions: serum approximately 100 days following HSCT; compared to serum of patients receiving TMP-SMX; 4 days
Procedure: FIG. 43 contains a dot plot quantifying viability of U266 cancer cells grown for 4 days in serum from patients taking trimethoprim/sulfamethoxazole (TMP/SMX) or atovaquone; the indicated p-value was determined using the two-sample t-test.
The patient population consisted of AML patients treated with HSCT at the Dana-Farber Cancer Institute and who survived at least 150 days after transplant without relapse. Patients treated with atovaquone for at least 100 days within the 150-day period were classified as “high atovaquone” exposure, while the remaining patients were classified as “low atovaquone” exposure. […] To further investigate the anti-cancer activity of atovaquone in patients, serum samples were collected from patients approximately 100 days following HSCT who were being treated with either TMP-SMX or atovaquone. […] Atovaquone is a colored compound, and its presence in patient plasma is visibly noticeable.

[4] = tested on: STAT1; assay: STAT1 cell-based luciferase reporter system
Procedure: (§1) To determine if atovaquone inhibits STAT3, it was tested in a cell-based reporter system of STAT3 transcriptional activity (Nelson E A, et al. (2008) Nifuroxazide inhibits survival of multiple myeloma cells by directly inhibiting STAT3. Blood 112(13):5095-5102). These cells lack basal STAT3 activation; upon IL-6 treatment, STAT3 becomes activated and drives transcription of a STAT3-dependent luciferase reporter gene. The STAT3-luc reporter cells were pre-treated with drug for 1 hour, then stimulated with IL-6 (10 ng/ml) for 5 hr. Activity of firefly luciferase was measured and normalized by cell viability (Cell Titer Glo). […] To determine if atovaquone inhibits STAT3 activity specifically over other transcription factors, it was tested in cell-based reporter systems for STAT1 and STAT5, two other STAT family members, and NF-κB, an unrelated transcription factor.

[5] = clinical use; cited from earlier work
[6] = tested on: STAT5; assay: STAT5 cell-based luciferase reporter system
Procedure: as §1

SMILES: O=C1C(O)=C([C@H]2CC[C@H](c3ccc(Cl)cc3)CC2)C(=O)c2ccccc21 [atovaquone, trans-2-[4-(4-chlorophenyl)cyclohexyl]-3-hydroxy-1,4-naphthalenedione]
- mutant JAK2-dependent phosphorylation of STAT5 ([1]; HEL cells): inhibited
- STAT5 phosphorylation (BCR-ABL activated) ([1]; K562 cells): did not inhibit STAT5 phosphorylation
- viability of U266 cells [2]: killed
- viability of U266 cells in serum from treated patients [3]: reduced the viability of U266 cells
- STAT1 transcription factor activity [4]: modestly affected at the higher doses
- side effects / tolerability [5]: side effects are minimal; also recorded: extremely well-tolerated in humans
- STAT5 transcription factor activity [6]: modestly affected at the higher doses
